Measurements reported in paper PMC6041819, “Synthesis of novel benzenesulfamide derivatives with inhibitory activity against human cytosolic carbonic anhydrase I and II and Vibrio cholerae α- and β-class enzymes” (Journal of Enzyme Inhibition and Medicinal Chemistry, 2018).

Assays:
Experiment in all cases: stopped-flow CO2 hydrase assay
Format in all cases: biochemical
VchCAα = molecular target: T1, VchCAα (Vibrio cholerae, UniProt Q9KMP6)
T1 construct: gene VC_A0274

VchCAβ = molecular target: T2, VchCAβ (Vibrio cholerae, UniProt Q9KUD6)
T2 construct: gene VC_0586

hCA II = molecular target: T3, hCA II (Homo sapiens, UniProt P00918)
T3 construct: gene CA2; recombinant, obtained in-house; cytosolic isoform
Text: stopped-flow CO2 hydrase assay on hCA II

hCA I = molecular target: T4, hCA I (Homo sapiens, UniProt P00915)
T4 construct: gene CA1; recombinant, obtained in-house; cytosolic isoform
Text: stopped-flow CO2 hydrase assay on hCA I

T2 sequence (Q9KUD6 1-222): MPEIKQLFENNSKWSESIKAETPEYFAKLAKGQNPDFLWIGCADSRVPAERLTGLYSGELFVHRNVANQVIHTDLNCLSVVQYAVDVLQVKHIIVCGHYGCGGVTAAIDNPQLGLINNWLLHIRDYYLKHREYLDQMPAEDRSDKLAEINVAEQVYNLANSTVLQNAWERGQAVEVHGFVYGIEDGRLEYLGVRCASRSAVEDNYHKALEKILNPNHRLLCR
T1 sequence (Q9KMP6 21-239 limits assumed): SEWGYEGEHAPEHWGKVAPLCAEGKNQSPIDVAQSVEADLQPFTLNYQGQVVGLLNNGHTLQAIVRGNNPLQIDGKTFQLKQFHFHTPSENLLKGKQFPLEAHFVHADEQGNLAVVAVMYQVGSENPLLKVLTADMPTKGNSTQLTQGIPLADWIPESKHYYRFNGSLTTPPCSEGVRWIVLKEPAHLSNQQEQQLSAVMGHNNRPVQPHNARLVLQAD
T4 sequence (P00915 2-261): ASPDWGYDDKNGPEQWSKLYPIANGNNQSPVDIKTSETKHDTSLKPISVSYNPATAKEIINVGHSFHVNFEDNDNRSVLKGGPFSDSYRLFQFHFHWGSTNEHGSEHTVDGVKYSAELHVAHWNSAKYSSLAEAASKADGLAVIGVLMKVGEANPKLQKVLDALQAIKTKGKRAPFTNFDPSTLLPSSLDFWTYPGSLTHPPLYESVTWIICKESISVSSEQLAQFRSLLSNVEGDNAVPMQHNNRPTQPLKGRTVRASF

Structure (SMILES)	Ki (VchCAα) [nM]	Ki (VchCAβ) [nM]	Ki (hCA II) [nM]	Ki (hCA I) [nM]
NS(=O)(=O)Nc1cccc(S(=O)(=O)N2CCN(C(c3ccccc3)c3ccccc3)CC2)c1 [6a, 1-Benzhydryl-4-((3-sulfamoylaminophenyl)sulfonyl)piperazine]	334	4680	417	66.2
NS(=O)(=O)Nc1ccc(S(=O)(=O)N2CCN(C(c3ccccc3)c3ccccc3)CC2)cc1 [6b, 1-Benzhydryl-4-((4-sulfamoylaminophenyl)sulfonyl)piperazine]	236	1880	359	555
NS(=O)(=O)Nc1ccccc1S(=O)(=O)NCC(=O)N1CCN(C(c2ccccc2)c2ccccc2)CC1 [6c, N-(2-(4-Benzhydrylpiperazin-1-yl)-2-oxoethyl)-2-(sulfamoylamino)benzenesulfonamide]	931	> 10000	850	840
NS(=O)(=O)Nc1cccc(S(=O)(=O)NCC(=O)N2CCN(C(c3ccccc3)c3ccccc3)CC2)c1 [6d, N-(2-(4-Benzhydrylpiperazin-1-yl)-2-oxoethyl)-3-(sulfamoylamino)benzenesulfonamide]	95.7	3780	396	58.1
NS(=O)(=O)Nc1ccccc1S(=O)(=O)N1CCC(C(=O)N2CCN(C(c3ccccc3)c3ccccc3)CC2)CC1 [6e, (4-Benzhydrylpiperazin-1-yl)(1-((2-sulfamoylaminophenyl)sulfonyl)piperidin-4-yl)methanone]	879	> 10000	1360	578
NS(=O)(=O)Nc1cccc(S(=O)(=O)N2CCC(C(=O)N3CCN(C(c4ccccc4)c4ccccc4)CC3)CC2)c1 [6f, (4-Benzhydrylpiperazin-1-yl)(1-((3-sulfamoylaminophenyl)sulfonyl)piperidin-4-yl)methanone]	654	3790	576	43.1
NS(=O)(=O)Nc1ccc(S(=O)(=O)N2CCC(C(=O)N3CCN(C(c4ccccc4)c4ccccc4)CC3)CC2)cc1 [6g, (4-Benzhydrylpiperazin-1-yl)(1-((4-sulfamoylaminophenyl)sulfonyl)piperidin-4-yl)methanone]	140	2540	227	601
NS(=O)(=O)Nc1ccccc1S(=O)(=O)N1CCN(C(c2ccc(F)cc2)c2ccc(F)cc2)CC1 [6h, 1-(Bis(4-Fluorophenyl)methyl)-4-((2-sulfamoylaminophenyl)sulfonyl)piperazine]	2800	> 10000	1170	843
NS(=O)(=O)Nc1cccc(S(=O)(=O)N2CCN(C(c3ccc(F)cc3)c3ccc(F)cc3)CC2)c1 [6i, 1-(Bis(4-Fluorophenyl)methyl)-4-((3-sulfamoylaminophenyl)sulfonyl)piperazine]	588	1740	389	75
NS(=O)(=O)Nc1ccc(S(=O)(=O)N2CCN(C(c3ccc(F)cc3)c3ccc(F)cc3)CC2)cc1 [6j, 1-(Bis(4-Fluorophenyl)methyl)-4-((4-sulfamoylaminophenyl)sulfonyl)piperazine]	274	4350	353	64.6
NS(=O)(=O)Nc1ccccc1S(=O)(=O)NCC(=O)N1CCN(C(c2ccc(F)cc2)c2ccc(F)cc2)CC1 [6k, N-(2-(4-(bis(4-Fluorophenyl)methyl)piperazin-1-yl)-2-oxoethyl)-2-(sulfamoylamino)benzenesulfonamide]	1750	> 10000	1430	338
NS(=O)(=O)Nc1cccc(S(=O)(=O)NCC(=O)N2CCN(C(c3ccc(F)cc3)c3ccc(F)cc3)CC2)c1 [6l, N-(2-(4-(bis(4-Fluorophenyl)methyl)piperazin-1-yl)-2-oxoethyl)-3-(sulfamoylamino)benzenesulfonamide]	91.4	> 10000	218	71.1
NS(=O)(=O)Nc1ccc(S(=O)(=O)NCC(=O)N2CCN(C(c3ccc(F)cc3)c3ccc(F)cc3)CC2)cc1 [6m, N-(2-(4-(bis(4-Fluorophenyl)methyl)piperazin-1-yl)-2-oxoethyl)-4-(sulfamoylamino)benzene sulfonamide]	106	4670	208	47.8
NS(=O)(=O)Nc1ccccc1S(=O)(=O)N1CCC(C(=O)N2CCN(C(c3ccc(F)cc3)c3ccc(F)cc3)CC2)CC1 [6n, (4-(bis(4-Fluorophenyl)methyl)piperazin-1-yl)(1-((2-sulfamo-ylaminophenyl)sulfonyl)piperidin-4-yl)methanone]	3750	> 10000	590	683
NS(=O)(=O)Nc1cccc(S(=O)(=O)N2CCC(C(=O)N3CCN(C(c4ccc(F)cc4)c4ccc(F)cc4)CC3)CC2)c1 [6o, (4-(bis(4-Fluorophenyl)methyl)piperazin-1-yl)(1-((3-sulfamoylaminophenyl)sulfonyl)piperidin-4-yl)methanone]	497	1580	663	72
NS(=O)(=O)Nc1ccc(S(=O)(=O)N2CCC(C(=O)N3CCN(C(c4ccc(F)cc4)c4ccc(F)cc4)CC3)CC2)cc1 [6p, (4-(bis(4-Fluorophenyl)methyl)piperazin-1-yl)(1-((4-sulfamo-ylaminophenyl)sulfonyl)piperidin-4-yl)methanone]	398	4530	182	49.1
